Columns and labels:
[1] = molecular target: T1, human A2A receptors (Homo sapiens, UniProt P29274); experiment: Inhibition of human A2A receptor in recombinant HEK293 cells, cAMP quantification (HTRF); assay type: cell-based; settings: read-out: A2A (Category)
T1 construct: expressed in transfected cells; host or cells: HEK293
Protocol: (§1) The functional activities of human A2A and A2B receptors were determined by quantification of cAMP, being the second messenger for adenosine receptors.
(§2) After a 15 min incubation, HTRF reagents (cAMP dynamic 2, Cis Bio) were added and the cellular cAMP levels were determined using the ENVISION (Perkin Elmer) plate reader.

[2] = molecular target: T2, human A2B receptors (Homo sapiens, UniProt P29275); experiment: Inhibition of human A2B receptor in recombinant HEK293 cells, cAMP quantification (HTRF); assay type: cell-based; settings: read-out: A2B (Category)
T2 construct: expressed in transfected cells; host or cells: HEK293
T2 sequence (P29275 1-332): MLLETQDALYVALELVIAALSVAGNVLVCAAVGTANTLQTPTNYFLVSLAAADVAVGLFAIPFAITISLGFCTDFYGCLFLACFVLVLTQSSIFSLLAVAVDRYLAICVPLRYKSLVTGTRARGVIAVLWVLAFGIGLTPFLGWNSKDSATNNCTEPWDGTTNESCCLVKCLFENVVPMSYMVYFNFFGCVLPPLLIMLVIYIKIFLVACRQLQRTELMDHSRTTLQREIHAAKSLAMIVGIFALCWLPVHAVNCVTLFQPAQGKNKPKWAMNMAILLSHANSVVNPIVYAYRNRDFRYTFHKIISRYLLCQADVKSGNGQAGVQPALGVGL
Protocol: as §1, §2

T1 sequence (P29274 whole entry): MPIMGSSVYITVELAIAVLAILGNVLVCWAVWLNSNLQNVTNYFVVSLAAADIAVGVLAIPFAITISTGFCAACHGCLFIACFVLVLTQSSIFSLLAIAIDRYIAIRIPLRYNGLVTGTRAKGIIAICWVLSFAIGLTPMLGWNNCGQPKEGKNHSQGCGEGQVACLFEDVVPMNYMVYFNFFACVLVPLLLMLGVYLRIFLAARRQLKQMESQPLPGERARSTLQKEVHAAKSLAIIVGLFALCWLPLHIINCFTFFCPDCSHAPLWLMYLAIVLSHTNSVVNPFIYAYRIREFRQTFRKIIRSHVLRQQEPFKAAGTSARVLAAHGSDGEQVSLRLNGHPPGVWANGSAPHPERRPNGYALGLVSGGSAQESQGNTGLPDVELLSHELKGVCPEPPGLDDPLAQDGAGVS

Row | Structure (SMILES) | IC50 [1] [nM] | IC50 [2] [nM]
1 | O=C(c1cc2c(cn1)c(Nc1ccc(Cl)cc1)nn2CC(F)(F)F)N1CCCOCC1 [Compound 38, [3-(4-chloroanilino)-1-(2,2,2-trifluoroethyl)pyrazolo[4,3-c]pyridin-6-yl]-(1,4-oxazepan-4-yl)methanone] | < 100 | < 100
2 | CC1(O)CCN(C(=O)c2cc3c(cn2)c(Nc2cccc(F)c2)nn3CC(F)(F)F)CC1 [Compound 35, [3-(3-fluoroanilino)-1-(2,2,2-trifluoroethyl)pyrazolo[4,3-c]pyridin-6-yl]-(4-hydroxy-4-methyl-1-piperidyl)methanone] | < 100 | < 1000
3 | O=C(c1cc2c(cn1)c(Nc1ccccc1F)nn2CC(F)(F)F)N1CCCOCC1 [Compound 1, [3-(2-fluoroanilino)-1-(2,2,2-trifluoroethyl)pyrazolo[4,3-c]pyridin-6-yl]-(1,4-oxazepan-4-yl)methanone] | < 100 | < 1000
4 | O=C(c1cc2c(cn1)c(Nc1ccc(F)cn1)nn2CC(F)(F)F)N1[C@@H]2CC[C@H]1C[C@@H](O)C2 [Compound 107, [3-[(5-fluoro-2-pyridyl)amino]-1-(2,2,2-trifluoroethyl)pyrazolo[4,3-c]pyridin-6-yl]-(3-endo-hydroxy-8-azabicyclo[3.2.1]octan-8-yl)methanone] | < 100 | < 100
5 | O=C(c1cc2c(cn1)c(Nc1cccc(F)c1)nn2CC(F)(F)F)N1CCOCC(O)C1 (stereo not drawn) [Compound 32, [3-(3-fluoroanilino)-1-(2,2,2-trifluoroethyl)pyrazolo[4,3-c]pyridin-6-yl]-(6-hydroxy-1,4-oxazepan-4-yl)methanone] | < 100 | < 1000
6 | O=C(c1cc2c(cn1)c(Nc1ccccn1)nn2CC(F)(F)F)N1CCC(O)CC1 [Compound 24, (4-hydroxy-1-piperidyl)-[3-(2-pyridylamino)-1-(2,2,2-trifluoroethyl)pyrazolo[4,3-c]pyridin-6-yl]methanone] | < 100 | < 100
7 | O=C(c1cc2c(cn1)c(Nc1cc(F)ccn1)nn2CC(F)(F)F)N1[C@@H]2CC[C@H]1C[C@@H](O)C2 [Compound 120, [3-[(4-fluoro-2-pyridyl)amino]-1-(2,2,2-trifluoroethyl)pyrazolo[4,3-c]pyridin-6-yl]-(3-endo-hydroxy-8-azabicyclo[3.2.1]octan-8-yl)methanone] | < 100 | < 100
8 | O=C(c1cc2c(cn1)c(Nc1ccc(F)c(Cl)c1)nn2CC(F)(F)F)N1CCCOCC1 [Compound 18, [3-(3-chloro-4-fluoroanilino)-1-(2,2,2-trifluoroethyl)pyrazolo[4,3-c]pyridin-6-yl]-(1,4-oxazepan-4-yl)methanone] | < 100 | < 1000
9 | O=C(c1cc2c(cn1)c(Nc1cccc(Cl)c1)nn2CC(F)(F)F)N1CCCOCC1 [Compound 37, [3-(3-chloroanilino)-1-(2,2,2-trifluoroethyl)pyrazolo[4,3-c]pyridin-6-yl]-(1,4-oxazepan-4-yl)methanone] | < 100 | < 1000
10 | Cc1ccc(Nc2nn(CC(F)(F)F)c3cc(C(=O)N4CCCOCC4)ncc23)cc1F [Compound 16, [3-(3-fluoro-4-methylanilino)-1-(2,2,2-trifluoroethyl)pyrazolo[4,3-c]pyridin-6-yl]-(1,4-oxazepan-4-yl)methanone] | < 100 | < 100
11 | O=C(c1cc2c(cn1)c(Nc1cccc(F)c1)nn2CC(F)(F)F)N1CCCOCC1 [Compound 6, [3-(3-fluoroanilino)-1-(2,2,2-trifluoroethyl)pyrazolo[4,3-c]pyridin-6-yl]-(1,4-oxazepan-4-yl)methanone] | < 100 | < 100
12 | CS(=O)(=O)Cn1nc(Nc2cccc(F)c2)c2cnc(C(=O)N3[C@@H]4CC[C@H]3C[C@@H](O)C4)cc21 [Compound 31, [3-(3-fluoroanilino)-1-(methylsulfonylmethyl)pyrazolo[4,3-c]pyridin-6-yl]-(3-endo-hydroxy-8-azabicyclo[3.2.1]octan-8-yl)methanone] | < 100 | < 100

Next, values leading:

Row | IC50 [1] [nM] | IC50 [2] [nM] | Structure (SMILES)
13 | < 100 | < 1000 | O=C(c1cc2c(cn1)c(Nc1cccc(Cl)n1)nn2CC(F)(F)F)N1CCCOCC1 [Compound 51, [3-[(6-chloro-2-pyridyl)amino]-1-(2,2,2-trifluoroethyl)pyrazolo[4,3-c]pyridin-6-yl]-(1,4-oxazepan-4-yl)methanone]
14 | < 100 | < 100 | CC1(O)CCN(C(=O)c2cc3c(cn2)c(Nc2cc(F)ccn2)nn3CC(F)(F)F)CC1 [Compound 112, [3-(4-Fluoro-pyridin-2-ylamino)-1-(2,2,2-trifluoro-ethyl)-1H-pyrazolo[4,3-c]pyridin-6-yl]-(4-hydroxy-4-methyl-piperidin-1-yl)-methanone]
15 | < 100 | < 100 | [2H]C1([2H])COCCN(C(=O)c2cc3c(cn2)c(Nc2cccc(F)c2)nn3CC(F)(F)F)C1 [Compound 40, (6,6-dideuterio-1,4-oxazepan-4-yl)-[3-(3-fluoroanilino)-1-(2,2,2-trifluoroethyl)pyrazolo[4,3-c]pyridin-6-yl]methanone]
16 | < 100 | < 100 | CS(=O)(=O)Cn1nc(Nc2ccc(Cl)cn2)c2cnc(C(=O)N3CCCOCC3)cc21 [Compound 78, [3-(5-Chloro-pyridin-2-ylamino)-1-methanesulfonylmethyl-1H-pyrazolo[4,3-c]pyridin-6-yl]-[1,4]oxazepan-4-yl-methanone]
17 | < 100 | < 100 | O=C(c1cc2c(cn1)c(Nc1cc(F)ccn1)nn2CC(F)(F)F)N1CCC(O)(C2CC2)CC1 [Compound 115, [3-(4-Fluoro-pyridin-2-ylamino)-1-(2,2,2-trifluoro-ethyl)-1H-pyrazolo[4,3-c]pyridin-6-yl]-(4-cyclopropyl-4-hydroxypiperidin-1-yl)-methanone]
18 | < 100 | < 100 | O=C(c1cc2c(cn1)c(Nc1cc(F)ccn1)nn2CC(F)(F)F)N1CCOC[C@@H](F)C1 [Compound 110, [(6S)-6-fluoro-1,4-oxazepan-4-yl]-[3-(4-fluoro-pyridin-2-ylamino)-1-(2,2,2-trifluoro-ethyl)-1H-pyrazolo[4,3-c]pyridin-6-yl]-methanone]
19 | < 100 | < 100 | O=C(c1cc2c(cn1)c(Nc1cnccn1)nn2CC(F)(F)F)N1CCOC[C@@H](F)C1 [Compound 122, [(6S)-6-fluoro-1,4-oxazepan-4-yl]-[3-(pyrazin-2ylamino)-1-(2,2,2-trifluoro-ethyl)-1H-pyrazolo[4,3-c]pyridin-6-yl]-methanone]
20 | < 100 | < 100 | O=C(c1cc2c(cn1)c(Nc1cc(F)c(Cl)cn1)nn2CC(F)(F)F)N1CCCOCC1 [Compound 71, [3-[(5-chloro-4-fluoro-2-pyridyl)amino]-1-(2,2,2-trifluoroethyl)pyrazolo[4,3-c]pyridin-6-yl]-(1,4-oxazepan-4-yl)methanone]
21 | < 100 | < 100 | O=C(c1cc2c(cn1)c(Nc1cnccn1)nn2CC(F)(F)F)N1CCC(O)CC1 [Compound 74, (4-Hydroxy-piperidin-1-yl)-[3-(pyrazin-2-ylamino)-1-(2,2,2-trifluoro-ethyl)-1H-pyrazolo[4,3-c]pyridin-6-yl]-methanone]
22 | < 100 | < 1000 | O=C(c1cc2c(cn1)c(Nc1ccc(F)cn1)nn2CC(F)(F)F)N1CCC[C@@H](F)C1 [Compound 99, [(3R)-3-fluoro-piperidin-1-yl]-[3-(5-Fluoro-pyridin-2-ylamino)-1-(2,2,2-trifluoro-ethyl)-1H-pyrazolo[4,3-c]pyridin-6-yl]methanone]
23 | < 100 | < 100 | O=C(c1cc2c(cn1)c(Nc1ccc(F)c(F)n1)nn2CC(F)(F)F)N1CCCOCC1 [Compound 80, [3-[(5,6-difluoro-2-pyridyl)amino]-1-(2,2,2-trifluoroethyl)pyrazolo[4,3-c]pyridin-6-yl]-(1,4-oxazepan-4-yl)methanone]
24 | < 100 | < 100 | O=C(c1cc2c(cn1)c(Nc1ccc(F)cn1)nn2CC(F)(F)F)N1CCC[C@H](CO)C1 [Compound 102, [3-[(5-fluoro-2-pyridyl)amino]-1-(2,2,2-trifluoroethyl)pyrazolo[4,3-c]pyridin-6-yl]-[(3S)-3-(hydroxymethyl)-1-piperidyl]methanone]
25 | < 100 | < 100 | O=C(c1cc2c(cn1)c(Nc1ccc(F)cn1)nn2CC(F)(F)F)N1CCCOCC1 [Compound 44, [3-[(5-fluoro-2-pyridyl)amino]-1-(2,2,2-trifluoroethyl)pyrazolo[4,3-c]pyridin-6-yl]-(1,4-oxazepan-4-yl)methanone]
26 | < 100 | < 100 | O=C(c1cc2c(cn1)c(Nc1cc(F)ccn1)nn2CC(F)(F)F)N1CCC(F)CC1 [Compound 116, (4-Fluoro-piperidin-1-yl)-[3-(4-fluoro-pyridin-2-ylamino)-1-(2,2,2-trifluoro-ethyl)-1H-pyrazolo[4,3-c]pyridin-6-yl]-methanone]
27 | < 100 | < 100 | CC(C)C1(O)CCN(C(=O)c2cc3c(cn2)c(Nc2cc(F)ccn2)nn3CC(F)(F)F)CC1 [Compound 114, [3-(4-Fluoro-pyridin-2-ylamino)-1-(2,2,2-trifluoro-ethyl)-1H-pyrazolo[4,3-c]pyridin-6-yl]-(4-isopropyl-4-hydroxypiperidin-1-yl)-methanone]
